Measured values published in the NIST ThermoML archive (doi:10.1016/j.jct.2016.10.029).
Numbers after ± are expanded uncertainties.

Tests used:
[1] = Crystal; DTA
[2] = Molar enthalpy of transition or fusion; conditions: Crystal; DSC

CCOc1cc(C=O)ccc1O [3-ethoxy-4-hydroxybenzaldehyde]
Normal melting temperature [1]: 79.83 ± 1.1 °C
Molar enthalpy of transition or fusion [2]: 5.68 ± 0.263 kcal/mol
